{"source": "paper PMC12300041", "about": "“Tricyclic Isatin Derivatives as Anti-Inflammatory Compounds with High Kinase Binding Affinity” (Molecules, 2025)", "test_in_all_cases": "KINOMEscan", "type_in_all_cases": "binding", "key": {"[1]": {"target": "T1, MLK3 (Homo sapiens, UniProt Q16584)", "T1 construct": "purchased Eurofins DiscoverX KINOMEscan", "method_in_brief": "(§1)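 Binding reactions proceed for 1 h at room temperature. Kinase not bound by compound is captured on immobilized affinity ligand and quantified by qPCR; Kd is fitted over 12 half-log concentrations, top 33 μM.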"}, "[2]": {"target": "T2, NDR1 (Homo sapiens, UniProt Q15208)", "T2 construct": "purchased Eurofins DiscoverX KINOMEscan", "method_in_brief": "(§2)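 Read-out is qPCR of kinase not bound to the test compound, recovered by capture on an immobilized affinity ligand after a 1 h room-temperature binding step. Dissociation constants came from 12 half-log dilutions starting at 33 μM.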"}, "[3]": {"target": "T3, TIE1 (Homo sapiens, UniProt P35590)", "T3 construct": "purchased Eurofins DiscoverX KINOMEscan", "T3 sequence (P35590 22-1138)": "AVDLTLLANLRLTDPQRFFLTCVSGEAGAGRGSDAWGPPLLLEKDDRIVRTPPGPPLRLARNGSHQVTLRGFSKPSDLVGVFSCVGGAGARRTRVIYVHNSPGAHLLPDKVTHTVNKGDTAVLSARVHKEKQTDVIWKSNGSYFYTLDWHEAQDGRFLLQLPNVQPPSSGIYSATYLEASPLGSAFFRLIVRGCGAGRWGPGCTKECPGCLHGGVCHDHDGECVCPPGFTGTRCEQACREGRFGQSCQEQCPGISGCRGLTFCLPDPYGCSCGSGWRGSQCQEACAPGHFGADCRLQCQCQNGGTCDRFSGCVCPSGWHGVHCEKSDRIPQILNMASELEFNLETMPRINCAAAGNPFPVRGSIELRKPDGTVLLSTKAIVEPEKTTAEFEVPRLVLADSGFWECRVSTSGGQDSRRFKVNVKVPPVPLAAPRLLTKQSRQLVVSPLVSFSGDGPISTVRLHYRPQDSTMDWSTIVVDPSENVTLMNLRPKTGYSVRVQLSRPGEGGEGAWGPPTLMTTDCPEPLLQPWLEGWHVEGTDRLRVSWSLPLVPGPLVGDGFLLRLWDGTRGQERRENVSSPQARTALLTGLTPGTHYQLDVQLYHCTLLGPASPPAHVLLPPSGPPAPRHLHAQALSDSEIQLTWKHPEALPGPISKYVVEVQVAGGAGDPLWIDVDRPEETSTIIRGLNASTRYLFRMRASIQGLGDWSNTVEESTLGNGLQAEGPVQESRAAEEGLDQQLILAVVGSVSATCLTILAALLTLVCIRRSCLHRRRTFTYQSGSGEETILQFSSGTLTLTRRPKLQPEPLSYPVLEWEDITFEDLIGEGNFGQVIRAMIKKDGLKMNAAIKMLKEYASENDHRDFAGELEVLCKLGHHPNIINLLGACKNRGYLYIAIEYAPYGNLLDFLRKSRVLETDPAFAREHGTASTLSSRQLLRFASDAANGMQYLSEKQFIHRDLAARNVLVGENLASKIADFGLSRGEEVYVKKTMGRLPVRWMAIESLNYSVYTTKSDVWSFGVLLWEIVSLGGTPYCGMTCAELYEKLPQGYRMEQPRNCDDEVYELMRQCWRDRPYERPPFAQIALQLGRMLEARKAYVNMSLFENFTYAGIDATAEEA", "method_in_brief": "as §2"}, "[4]": {"target": "T4, PIM3 (Homo sapiens, UniProt Q86V86)", "T4 construct": "purchased Eurofins DiscoverX KINOMEscan", "method_in_brief": "as §2"}, "[5]": {"target": "T5, CDC2L5 (Homo sapiens, UniProt Q14004)", "T5 construct": "purchased Eurofins DiscoverX KINOMEscan", "method_in_brief": "as §2"}, "[6]": {"target": "T6, KIT (V559D, V654A) (Homo sapiens, UniProt P10721, V559D/V654A)", "T6 construct": "purchased Eurofins DiscoverX KINOMEscan", "T6 sequence (P10721 26-976 V559D/V654A)": "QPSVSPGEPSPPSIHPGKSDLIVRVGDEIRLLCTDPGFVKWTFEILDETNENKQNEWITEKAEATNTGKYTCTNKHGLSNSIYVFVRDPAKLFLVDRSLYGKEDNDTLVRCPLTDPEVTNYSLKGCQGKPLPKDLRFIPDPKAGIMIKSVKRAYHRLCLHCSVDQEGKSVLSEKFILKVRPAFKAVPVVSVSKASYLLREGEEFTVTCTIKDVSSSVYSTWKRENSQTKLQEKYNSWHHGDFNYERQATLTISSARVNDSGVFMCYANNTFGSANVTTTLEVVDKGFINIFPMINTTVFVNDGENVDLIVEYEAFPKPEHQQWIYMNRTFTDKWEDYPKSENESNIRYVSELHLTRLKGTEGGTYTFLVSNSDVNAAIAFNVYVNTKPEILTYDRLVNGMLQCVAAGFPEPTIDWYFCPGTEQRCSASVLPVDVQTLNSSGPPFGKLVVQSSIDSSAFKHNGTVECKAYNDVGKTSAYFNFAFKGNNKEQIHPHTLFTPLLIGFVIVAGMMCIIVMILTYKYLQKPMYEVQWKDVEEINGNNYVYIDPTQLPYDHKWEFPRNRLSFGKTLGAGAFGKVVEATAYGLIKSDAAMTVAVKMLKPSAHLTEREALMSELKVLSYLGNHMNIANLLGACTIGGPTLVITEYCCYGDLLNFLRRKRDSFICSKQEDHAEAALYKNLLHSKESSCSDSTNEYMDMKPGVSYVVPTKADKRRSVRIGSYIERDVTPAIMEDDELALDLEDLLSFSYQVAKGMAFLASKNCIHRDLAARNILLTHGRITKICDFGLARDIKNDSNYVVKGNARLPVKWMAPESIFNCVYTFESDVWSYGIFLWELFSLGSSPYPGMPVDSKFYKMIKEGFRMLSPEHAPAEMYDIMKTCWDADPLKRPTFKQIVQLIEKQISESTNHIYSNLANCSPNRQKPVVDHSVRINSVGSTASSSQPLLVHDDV", "method_in_brief": "as §1"}, "[7]": {"target": "T7, DRAK1 (Homo sapiens, UniProt Q9UEE5)", "T7 construct": "purchased Eurofins DiscoverX KINOMEscan", "method_in_brief": "as §2"}, "[8]": {"target": "T8, ADCK3 (Homo sapiens, UniProt Q8NI60)", "T8 construct": "purchased Eurofins DiscoverX KINOMEscan", "T8 sequence (Q8NI60 163-647)": "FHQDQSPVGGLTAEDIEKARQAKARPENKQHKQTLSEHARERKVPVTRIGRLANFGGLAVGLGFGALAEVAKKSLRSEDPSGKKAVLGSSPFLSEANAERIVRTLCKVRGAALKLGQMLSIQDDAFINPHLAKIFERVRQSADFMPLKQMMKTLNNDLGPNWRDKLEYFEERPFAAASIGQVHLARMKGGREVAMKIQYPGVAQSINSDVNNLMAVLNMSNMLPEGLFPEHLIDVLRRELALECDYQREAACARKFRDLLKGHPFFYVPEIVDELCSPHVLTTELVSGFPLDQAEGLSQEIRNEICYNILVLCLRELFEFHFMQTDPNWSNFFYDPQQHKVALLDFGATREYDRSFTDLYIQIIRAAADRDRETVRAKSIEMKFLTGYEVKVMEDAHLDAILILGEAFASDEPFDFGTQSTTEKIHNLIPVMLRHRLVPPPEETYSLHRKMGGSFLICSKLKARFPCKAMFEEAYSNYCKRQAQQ", "method_in_brief": "as §1"}, "[9]": {"target": "T9, ULK2 (Homo sapiens, UniProt Q8IYT8)", "T9 construct": "purchased Eurofins DiscoverX KINOMEscan", "method_in_brief": "as §2"}, "[10]": {"target": "T10, SgK110 (Homo sapiens, UniProt P0C264)", "T10 construct": "purchased Eurofins DiscoverX KINOMEscan", "method_in_brief": "as §1"}, "[11]": {"target": "T11, DYRK2 (Homo sapiens, UniProt Q92630)", "T11 construct": "purchased Eurofins DiscoverX KINOMEscan", "method_in_brief": "as §2"}, "[12]": {"target": "T12, ITK (Homo sapiens, UniProt Q08881)", "T12 construct": "purchased Eurofins DiscoverX KINOMEscan", "method_in_brief": "as §1"}, "[13]": {"target": "T13, RIPK4 (Homo sapiens, UniProt P57078)", "T13 construct": "purchased Eurofins DiscoverX KINOMEscan", "method_in_brief": "as §2"}, "[14]": {"target": "T14, p38-β (Homo sapiens, UniProt Q15759)", "T14 construct": "purchased Eurofins DiscoverX KINOMEscan", "method_in_brief": "as §2"}, "[15]": {"target": "T15, RSK4 (Kin. Dom.1-N-term.) (Homo sapiens, UniProt Q9UK32)", "T15 construct": "RSK4 (Kin. Dom.1-N-term.); purchased Eurofins DiscoverX KINOMEscan", "T15 sequence (Q9UK32 1-400 limits assumed)": "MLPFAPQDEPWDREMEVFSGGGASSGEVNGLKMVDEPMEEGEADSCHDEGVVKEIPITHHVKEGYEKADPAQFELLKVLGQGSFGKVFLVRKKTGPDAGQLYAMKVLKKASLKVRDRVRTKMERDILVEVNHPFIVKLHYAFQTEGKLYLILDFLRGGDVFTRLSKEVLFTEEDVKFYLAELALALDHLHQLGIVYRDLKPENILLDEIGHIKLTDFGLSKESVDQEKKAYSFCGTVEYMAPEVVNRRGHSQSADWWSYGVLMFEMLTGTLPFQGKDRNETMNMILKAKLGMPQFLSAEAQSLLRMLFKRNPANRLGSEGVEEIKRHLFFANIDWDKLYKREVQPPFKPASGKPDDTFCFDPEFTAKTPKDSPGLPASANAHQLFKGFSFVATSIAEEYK", "method_in_brief": "as §1"}, "[16]": {"target": "T16, CSNK1G2 (Homo sapiens, UniProt P78368)", "T16 construct": "purchased Eurofins DiscoverX KINOMEscan", "method_in_brief": "as §2"}, "[17]": {"target": "T17, ABL1 (M351T)-P (Homo sapiens, UniProt P00519, M351T)", "T17 construct": "purchased Eurofins DiscoverX KINOMEscan", "method_in_brief": "as §2"}, "[18]": {"target": "T18, MYO3B (Homo sapiens, UniProt Q8WXR4)", "T18 construct": "purchased Eurofins DiscoverX KINOMEscan", "method_in_brief": "as §1"}, "[19]": {"target": "T19, FLT4 (Homo sapiens, UniProt P35916)", "T19 construct": "purchased Eurofins DiscoverX KINOMEscan", "method_in_brief": "as §2"}, "[20]": {"target": "T20, CSF1R (Homo sapiens, UniProt P07333)", "T20 construct": "purchased Eurofins DiscoverX KINOMEscan", "T20 sequence (P07333 20-972)": "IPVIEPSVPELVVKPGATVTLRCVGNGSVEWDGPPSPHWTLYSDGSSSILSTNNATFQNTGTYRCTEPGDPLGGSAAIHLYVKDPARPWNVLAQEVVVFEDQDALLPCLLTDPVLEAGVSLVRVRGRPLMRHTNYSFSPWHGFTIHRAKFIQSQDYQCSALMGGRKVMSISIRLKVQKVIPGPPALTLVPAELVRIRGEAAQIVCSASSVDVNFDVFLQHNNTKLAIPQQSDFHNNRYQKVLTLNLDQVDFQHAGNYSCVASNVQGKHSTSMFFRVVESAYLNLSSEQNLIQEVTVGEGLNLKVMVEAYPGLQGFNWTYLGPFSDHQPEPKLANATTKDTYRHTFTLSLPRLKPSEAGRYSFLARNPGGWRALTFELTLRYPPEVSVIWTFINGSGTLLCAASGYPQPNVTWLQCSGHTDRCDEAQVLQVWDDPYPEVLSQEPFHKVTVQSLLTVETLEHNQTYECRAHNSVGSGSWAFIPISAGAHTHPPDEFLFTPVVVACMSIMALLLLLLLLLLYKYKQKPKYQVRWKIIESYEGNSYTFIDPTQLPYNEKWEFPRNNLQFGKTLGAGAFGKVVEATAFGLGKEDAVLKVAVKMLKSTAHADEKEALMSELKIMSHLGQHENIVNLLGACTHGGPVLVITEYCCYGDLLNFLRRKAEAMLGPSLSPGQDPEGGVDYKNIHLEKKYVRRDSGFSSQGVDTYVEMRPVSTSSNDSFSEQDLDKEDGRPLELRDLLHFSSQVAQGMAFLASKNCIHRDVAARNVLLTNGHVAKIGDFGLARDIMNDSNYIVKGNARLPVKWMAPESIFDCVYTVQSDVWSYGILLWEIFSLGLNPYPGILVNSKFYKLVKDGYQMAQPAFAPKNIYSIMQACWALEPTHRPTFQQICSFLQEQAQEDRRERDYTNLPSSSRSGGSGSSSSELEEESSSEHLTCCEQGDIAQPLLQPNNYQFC", "method_in_brief": "as §2"}, "[21]": {"target": "T21, MRCKB (Homo sapiens, UniProt Q9Y5S2)", "T21 construct": "purchased Eurofins DiscoverX KINOMEscan", "method_in_brief": "as §2"}, "[22]": {"target": "T22, JAK1 (JH1domain-cat.) (Homo sapiens, UniProt P23458)", "T22 construct": "JAK1 (JH1domain-cat.); purchased Eurofins DiscoverX KINOMEscan", "method_in_brief": "as §1"}, "[23]": {"target": "T23, LCK (Homo sapiens, UniProt P06239)", "T23 construct": "purchased Eurofins DiscoverX KINOMEscan", "method_in_brief": "as §1"}, "[24]": {"target": "T24, TAOK3 (Homo sapiens, UniProt Q9H2K8)", "T24 construct": "purchased Eurofins DiscoverX KINOMEscan", "method_in_brief": "as §2"}, "[25]": {"target": "T25, GRK2 (Homo sapiens, UniProt P25098)", "T25 construct": "purchased Eurofins DiscoverX KINOMEscan", "method_in_brief": "as §2"}, "[26]": {"target": "T26, ABL1 (F317L)-P (Homo sapiens, UniProt P00519, F317L)", "T26 construct": "purchased Eurofins DiscoverX KINOMEscan", "method_in_brief": "as §2"}, "[27]": {"target": "T27, STK39 (Homo sapiens, UniProt Q9UEW8)", "T27 construct": "purchased Eurofins DiscoverX KINOMEscan", "method_in_brief": "as §2"}, "[28]": {"target": "T28, KIT (D816V) (Homo sapiens, UniProt P10721, D816V)", "T28 construct": "purchased Eurofins DiscoverX KINOMEscan", "method_in_brief": "as §2"}, "[29]": {"target": "T29, EPHA2 (Homo sapiens, UniProt P29317)", "T29 construct": "purchased Eurofins DiscoverX KINOMEscan", "method_in_brief": "as §2"}, "[30]": {"target": "T30, NEK11 (Homo sapiens, UniProt Q8NG66)", "T30 construct": "purchased Eurofins DiscoverX KINOMEscan", "method_in_brief": "as §1"}, "[31]": {"target": "T31, BRAF (V600E) (Homo sapiens, UniProt P15056, V600E)", "T31 construct": "purchased Eurofins DiscoverX KINOMEscan", "method_in_brief": "as §2"}, "[32]": {"target": "T32, TNK2 (Homo sapiens, UniProt Q07912)", "T32 construct": "purchased Eurofins DiscoverX KINOMEscan", "method_in_brief": "as §2"}, "[33]": {"target": "T33, PIK3CA (Homo sapiens, UniProt P42336)", "T33 construct": "purchased Eurofins DiscoverX KINOMEscan", "method_in_brief": "as §2"}, "[34]": {"target": "T34, INSRR (Homo sapiens, UniProt P14616)", "T34 construct": "purchased Eurofins DiscoverX KINOMEscan", "method_in_brief": "as §2"}, "[35]": {"target": "T35, PAK7 (Homo sapiens, UniProt Q9P286)", "T35 construct": "purchased Eurofins DiscoverX KINOMEscan", "method_in_brief": "as §2"}, "[36]": {"target": "T36, EGFR (G719S) (Homo sapiens, UniProt P00533, G719S)", "T36 construct": "purchased Eurofins DiscoverX KINOMEscan", "T36 sequence (P00533 25-1210 G719S)": "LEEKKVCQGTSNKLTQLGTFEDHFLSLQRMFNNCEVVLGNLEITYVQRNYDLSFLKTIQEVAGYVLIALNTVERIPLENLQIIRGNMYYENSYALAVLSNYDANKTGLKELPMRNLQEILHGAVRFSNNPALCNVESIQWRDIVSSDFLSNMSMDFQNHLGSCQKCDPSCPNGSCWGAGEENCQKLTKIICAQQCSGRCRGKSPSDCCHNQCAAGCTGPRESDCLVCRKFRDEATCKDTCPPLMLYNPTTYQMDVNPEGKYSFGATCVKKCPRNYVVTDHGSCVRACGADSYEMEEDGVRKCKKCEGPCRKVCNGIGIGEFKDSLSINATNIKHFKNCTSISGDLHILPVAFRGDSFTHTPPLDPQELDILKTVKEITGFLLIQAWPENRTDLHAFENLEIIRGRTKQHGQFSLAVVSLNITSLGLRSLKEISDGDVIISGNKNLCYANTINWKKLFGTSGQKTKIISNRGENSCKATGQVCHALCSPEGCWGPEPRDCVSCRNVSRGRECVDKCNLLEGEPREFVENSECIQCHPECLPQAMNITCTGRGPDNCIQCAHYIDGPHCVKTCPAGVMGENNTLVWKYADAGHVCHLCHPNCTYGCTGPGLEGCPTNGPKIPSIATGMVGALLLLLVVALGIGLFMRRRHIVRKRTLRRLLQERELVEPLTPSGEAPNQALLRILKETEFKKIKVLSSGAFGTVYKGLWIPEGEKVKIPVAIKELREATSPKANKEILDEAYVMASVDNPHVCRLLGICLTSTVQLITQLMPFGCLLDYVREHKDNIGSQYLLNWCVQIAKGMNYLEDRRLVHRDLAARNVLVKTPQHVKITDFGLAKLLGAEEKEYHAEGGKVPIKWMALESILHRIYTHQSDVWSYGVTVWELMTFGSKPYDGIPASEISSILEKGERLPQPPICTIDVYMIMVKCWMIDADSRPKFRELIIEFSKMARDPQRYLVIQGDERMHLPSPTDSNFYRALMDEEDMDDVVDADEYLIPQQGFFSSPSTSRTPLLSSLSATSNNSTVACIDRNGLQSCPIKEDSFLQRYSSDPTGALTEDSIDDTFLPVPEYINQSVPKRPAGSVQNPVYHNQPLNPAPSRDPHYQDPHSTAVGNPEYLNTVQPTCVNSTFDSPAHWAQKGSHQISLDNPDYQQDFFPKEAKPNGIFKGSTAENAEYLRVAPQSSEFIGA", "method_in_brief": "as §2"}, "[37]": {"target": "T37, CSNK1E (Homo sapiens, UniProt P49674)", "T37 construct": "purchased Eurofins DiscoverX KINOMEscan", "method_in_brief": "as §1"}, "[38]": {"target": "T38, KIT (Homo sapiens, UniProt P10721)", "T38 construct": "purchased Eurofins DiscoverX KINOMEscan", "method_in_brief": "as §2"}}}
{"smiles": "O=C1Nc2c(cc([N+](=O)[O-])c3c2CCCC3)C1=NO", "note": "[Compound 5d, 3-(Hydroxyimino)-5-nitro-1,3,6,7,8,9-hexahydro-2H-benzo[g]indol-2-one]", "values": [{"measurement": "inhibition at 10 µM", "setting": "[1]", "result": 31, "unit": "%"}, {"measurement": "inhibition at 10 µM", "setting": "[2]", "result": 34, "unit": "%"}, {"measurement": "inhibition at 10 µM", "setting": "[3]", "result": 12, "unit": "%"}, {"measurement": "inhibition at 10 µM", "setting": "[4]", "result": 95.8, "unit": "%"}, {"measurement": "inhibition at 10 µM", "setting": "[5]", "result": 13, "unit": "%"}, {"measurement": "inhibition at 10 µM", "setting": "[6]", "result": 0, "unit": "%"}, {"measurement": "inhibition at 10 µM", "setting": "[7]", "result": 76, "unit": "%"}, {"measurement": "inhibition at 10 µM", "setting": "[8]", "result": 12, "unit": "%"}, {"measurement": "inhibition at 10 µM", "setting": "[9]", "result": 52, "unit": "%"}, {"measurement": "inhibition at 10 µM", "setting": "[10]", "result": 0, "unit": "%"}, {"measurement": "inhibition at 10 µM", "setting": "[11]", "result": 81, "unit": "%"}, {"measurement": "inhibition at 10 µM", "setting": "[12]", "result": 0, "unit": "%"}, {"measurement": "inhibition at 10 µM", "setting": "[13]", "result": 55, "unit": "%"}, {"measurement": "inhibition at 10 µM", "setting": "[14]", "result": 15, "unit": "%"}, {"measurement": "inhibition at 10 µM", "setting": "[15]", "result": 77, "unit": "%"}, {"measurement": "inhibition at 10 µM", "setting": "[16]", "result": 90, "unit": "%"}, {"measurement": "inhibition at 10 µM", "setting": "[17]", "result": 5, "unit": "%"}, {"measurement": "inhibition at 10 µM", "setting": "[18]", "result": 30, "unit": "%"}, {"measurement": "inhibition at 10 µM", "setting": "[19]", "result": 8, "unit": "%"}, {"measurement": "inhibition at 10 µM", "setting": "[20]", "result": 0, "unit": "%"}, {"measurement": "inhibition at 10 µM", "setting": "[21]", "result": 0, "unit": "%"}, {"measurement": "inhibition at 10 µM", "setting": "[22]", "result": 0, "unit": "%"}, {"measurement": "inhibition at 10 µM", "setting": "[23]", "result": 29, "unit": "%"}, {"measurement": "inhibition at 10 µM", "setting": "[24]", "result": 65, "unit": "%"}, {"measurement": "inhibition at 10 µM", "setting": "[25]", "result": 48, "unit": "%"}, {"measurement": "inhibition at 10 µM", "setting": "[26]; first of two lines printed ABL1 (F317L)-P", "result": 23, "unit": "%"}, {"measurement": "inhibition at 10 µM", "setting": "[26]; second of two lines printed ABL1 (F317L)-P", "result": 20, "unit": "%"}, {"measurement": "inhibition at 10 µM", "setting": "[27]", "result": 53, "unit": "%"}, {"measurement": "inhibition at 10 µM", "setting": "[28]", "result": 22, "unit": "%"}, {"measurement": "inhibition at 10 µM", "setting": "[29]", "result": 19, "unit": "%"}, {"measurement": "inhibition at 10 µM", "setting": "[30]", "result": 46, "unit": "%"}, {"measurement": "inhibition at 10 µM", "setting": "[31]", "result": 23, "unit": "%"}, {"measurement": "inhibition at 10 µM", "setting": "[32]", "result": 2, "unit": "%"}, {"measurement": "inhibition at 10 µM", "setting": "[33]", "result": 0, "unit": "%"}, {"measurement": "inhibition at 10 µM", "setting": "[34]", "result": 4, "unit": "%"}, {"measurement": "inhibition at 10 µM", "setting": "[35]", "result": 55, "unit": "%"}, {"measurement": "inhibition at 10 µM", "setting": "[36]", "result": 13, "unit": "%"}, {"measurement": "inhibition at 10 µM", "setting": "[37]", "result": 80, "unit": "%"}, {"measurement": "inhibition at 10 µM", "setting": "[38]", "result": 0, "unit": "%"}]}
